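Following 48 hours of exposure in 96-well plates, responses at five concentrations were used to interpolate endpoints linearly. At the GI50, growth is halved.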 The source made the active and inactive calls. No stated cut-off is given here; in the data, active = GI50 up to about 1.1 µM and inactive = higher.
Key:
Assay in all cases: NCI tumour cell line growth inhibition, 48 h
NCI-H226 = test system: NCI-H226
Hs-578T = test system: Hs-578T
SF-539 = test system: SF-539
SR = test system: SR
UACC-257 = test system: UACC-257
M14 = test system: M14
IGROV-1 = test system: IGROV-1
HL-60 = test system: HL-60
BT-549 = test system: BT-549
MDA-MB-231 = test system: MDA-MB-231
NCI-H460 = test system: NCI-H460
HOP-92 = test system: HOP-92
OVCAR-5 = test system: OVCAR-5
RPMI-8226 = test system: RPMI-8226
SK-MEL-2 = test system: SK-MEL-2
UO-31 = test system: UO-31
UACC-62 = test system: UACC-62
HOP-62 = test system: HOP-62
OVCAR-3 = test system: OVCAR-3
SF-295 = test system: SF-295

Measured: GI50

C(=C\c1cccc(/C=C/c2ccccn2)n1)/c1ccccn1
inactive: NCI-H226 > 100 µM | Hs-578T 19.5 µM | SF-539 > 100 µM | SR 62.2 µM | UACC-257 > 100 µM | M14 43.3 µM | IGROV-1 61.8 µM | HL-60 72.4 µM | BT-549 18.7 µM | MDA-MB-231 > 100 µM | NCI-H460 > 100 µM | HOP-92 > 100 µM | OVCAR-5 > 100 µM | RPMI-8226 43.6 µM | SK-MEL-2 > 100 µM | UO-31 26.2 µM | UACC-62 27.1 µM | HOP-62 > 100 µM | OVCAR-3 79.3 µM | SF-295 66.2 µM

COC(=O)c1c(C)cccc1/C=C1\Cc2ccc(C)c(C)c2C1=O
inactive: NCI-H226 > 100 µM | Hs-578T > 100 µM | SF-539 > 100 µM | SR 8.39 µM | UACC-257 > 100 µM | M14 52.4 µM | IGROV-1 > 100 µM | HL-60 > 100 µM | BT-549 > 100 µM | MDA-MB-231 > 100 µM | NCI-H460 > 100 µM | HOP-92 74.3 µM | OVCAR-5 > 100 µM | RPMI-8226 56.2 µM | SK-MEL-2 > 100 µM | UO-31 28.8 µM | UACC-62 14.5 µM | HOP-62 41.7 µM | OVCAR-3 > 100 µM | SF-295 > 100 µM

OC1CCN(c2c3ccccc3nc3ccccc23)CC1
inactive: NCI-H226 34.2 µM | Hs-578T 35.1 µM | SF-539 33 µM | SR 2.77 µM | UACC-257 20.4 µM | M14 6.92 µM | IGROV-1 14.6 µM | HL-60 8.61 µM | BT-549 17.7 µM | MDA-MB-231 25.1 µM | NCI-H460 21.3 µM | HOP-92 6.9 µM | OVCAR-5 51.8 µM | RPMI-8226 4.82 µM | SK-MEL-2 5.52 µM | UO-31 2.45 µM | UACC-62 35.5 µM | HOP-62 34.4 µM | OVCAR-3 7.23 µM | SF-295 27.9 µM

CC(C)(C)c1cc(C(C)(C)C)c(SC2OC(CO)C(O)C(O)C2O)c(O)c1O (stereo not given)
inactive: NCI-H226 12.3 µM | Hs-578T 3.22 µM | SF-539 3.48 µM | SR 4.52 µM | UACC-257 20.9 µM | M14 18.3 µM | IGROV-1 9.64 µM | HL-60 3.27 µM | BT-549 10.6 µM | MDA-MB-231 17.8 µM | NCI-H460 3.24 µM | HOP-92 11.6 µM | OVCAR-5 9.18 µM | RPMI-8226 15.1 µM | SK-MEL-2 11.1 µM | UO-31 11.4 µM | UACC-62 2.2 µM | HOP-62 13.2 µM | OVCAR-3 7.66 µM | SF-295 8.39 µM

Reference: ChEMBL document CHEMBL1201862, “PubChem BioAssay data set” (2004)
